Experimental data as given in patent publication US10774046B2, “Inhibitors for the treatment of cancer and related methods” (UNIVERSITY OF LOUISVILLE RESEARCH FOUNDATION, INC., priority 2017, dated 2020).
Values belong to the compound of their own block, whether it stands above or below them.

Legend:
human recombinant PFKFB4 = human recombinant PFKFB4 (Homo sapiens, UniProt Q16877); assay: ADP-Glo kinase assay; assay type: biochemical
Method: The fructose-6-phosphate kinase activity of human recombinant PFKFB4 in the presence of DMSO±indicated 5MPN concentrations was assayed as previously described. The activity of 5MPN against 97 kinases was examined using a commercially available active-site dependent competition binding assay core service (KINOMEscanEDGE) that quantifies the capacity of test agents to compete with an immobilized, active-site directed ligand using a DNA-tagged kinase and immobilized ligand and compound. For example, enzyme inhibition was studied using an ADP-Glo assay. The effect of MPN-2 on the activity of recombinant human PFKFB4 enzyme was examined in an ADP-Glo assay (Promega), which measures ADP formed from a kinase reaction. ADP is converted into ATP, which is converted into light by a luciferase. PFKFB4 protein was exposed to MPN-2 at indicated concentrations in the presence of ATP and fructose-6-phosphate and following manufacturer's instructions, ADP-Glo and kinase detections reagents were added. The data are shown as the decrease in luminescence caused by MPN-2 relative to DMSO.
Method: The efficacy of Formula (VIII) in inhibition of the kinase activity of the PFKFB4 enzyme was examined by exposing recombinant human PFKFB4 protein to Formula (VIII) in the ADP-Glo kinase assay (Promega) which measures ADP formed through a kinase reaction. Briefly, recombinant protein, ATP, substrate and Formula (VIII) were incubated together for the kinase reaction followed by the addition of ADP-Glo reagent, used to terminate the kinase reaction. Lastly, a kinase detection reagent was added to convert the newly formed ADP to ATP which was measured by a luciferase reaction. Data are shown in FIG. 10 as the decrease in luminescence caused by Formula (VIII) relative to DMSO.
Method: The efficacy of FB4-32 and FB4-35 in inhibition of the kinase activity of the PFKFB4 enzyme was examined by exposing recombinant human PFKFB4 protein to FB4-32 and FB4-35 in the ADP-Glo kinase assay (Promega) which measures ADP formed through a kinase reaction. Briefly, recombinant protein, ATP, substrate and FB4-32 or FB4-35 were incubated together for the kinase reaction followed by the addition of ADP-Glo reagent to terminate the kinase reaction. Last, a kinase detection reagent was added to convert the newly formed ADP to ATP which was measured by a luciferase reaction. Data are shown as the decrease in luminescence caused by FB4-32 and FB4-35 relative to DMSO.

H460 cells = assay: F2,6BP measurement in cells (coupled enzyme reaction); assay type: cell-based, human
Method: Cells or tissues were prepared as previously described and F2,6BP content measured using a coupled enzyme reaction following a modification of the method of Van Schaftingen et al (VAN SCHAFTINGEN E et al. “A kinetic study of pyrophosphate:fructose-6-phosphate phosphotransferase from potato tubers. Application to a microassay of fructose 2,6-bisphosphate” Eur J Biochem (1982) Vol. 129, No. 1, pp. 191-195) and normalized to total cellular protein measured by the bicinchoninic acid assay (BCA, Thermo Scientific). For example, H460 cells were exposed to the indicated concentrations of MPN-2. In order to measure F2,6BP, cells were harvested, washed with PBS, lysed in NaOH/Tris acetate by heating at 80° C. and lysates neutralized to pH 7.2. F2,6BP content was measured using a coupled enzyme reaction following a modified method of Van Schaftingen et al (VAN SCHAFTINGEN E et al. “A kinetic study of pyrophosphate:fructose-6-phosphate phosphotransferase from potato tubers. Application to a microassay of fructose 2,6-bisphosphate” Eur J Biochem (1982) Vol. 129, No. 1, pp. 191-195). The F2,6BP concentration was normalized to total cellular protein measured by the bicinchoninic acid assay (BCA, Thermo Scientific). All data are expressed as the mean±SD of three experiments. Statistical significance was assessed by the two-sample t test (independent variable).
Method: In order to measure F26BP, H460 cells were exposed to increasing concentrations of the agents and were harvested, washed with PBS, lysed in NaOH/Tris acetate by heating at 80° C. and lysates neutralized to pH 7.2. F26BP content was measured using a coupled enzyme reaction following a modified method of Van Schaftingen et al. (Eur J Biochem. 1982; 129(1):191-195). The F26BP concentration was normalized to total cellular protein measured by the bicinchoninic acid assay (BCA, Thermo Scientific).

[1] = tested on: Lewis lung carcinoma (LLC) tumors; assay: Lewis lung carcinoma tumor growth in syngeneic mice; assay type: in vivo, C57BL/6 mice
Method: For xenograft studies, exponentially growing LLC or H460 cells were detached, washed and resuspended in PBS. Female C57BL/6 mice (Jackson Labs) were injected with LLC cells (n=10/group, s.c., 1×10^6 cells) and female BALB/c athymic mice (Jackson Labs) with H460 cells (n=10/group, s.c, 5×10^6 cells). Tumor masses were determined in a blinded fashion with Vernier calipers using the formula: mass (mg)=(width, mm)^2×(length, mm)/2 as previously described. When tumor masses were 150-200 mg, mice were randomized to daily intraperitoneal DMSO or 5MPN at the indicated dose in 50 μL DMSO. Tumor measurements and body weights were followed daily. All data are expressed as the mean±SD of two experiments. Statistical significance was assessed by the two-sample t test (independent variable).
Method: C57BL/6 mice (Charles River) were implanted with 1×10^6 Lewis lung carcinoma cells subcutaneously and, after tumors developed, were followed by caliper measurements daily to quantify tumor mass using the formula: tumor mass=(length×width^2)/2. When tumors were ˜150-200 mg, mice were randomized to daily oral DMSO±Formula (VIII) (n=10/group) at 40 mg/kg in 50 μL DMSO and tumor growth followed×9 days. (* signifies statistical significance)

LLC tumors = assay: tumor glucose uptake by FDG micro-PET; assay type: in vivo, C57BL/6 mice
Method: At the end of the experiment, animals were euthanized, tumors removed and sections fixed in 10% formaldehyde for immunohistochemistry or snap-frozen in liquid nitrogen for analyses. Subsets of tumor-bearing mice (n=3) were injected i.p. with 2-[^18F]-fluoro-2-deoxyglucose (FDG, 150 μCi, 100 μl) and imaged by micro-positron emission tomography as previously described. Regions of interest in the tumors and cerebellum were quantified in quadruplicate and expressed as the mean±SD of the tumor:cerebellar FDG uptake ratio. Animal experiments were approved by the University of Louisville Institutional Animal Care and Use Committee.
Method: FDG-PET was conducted on tumor-bearing mice to determine acute effects of Formula (VIII) on glucose uptake. C57BL/6 mice (Charles River) with subcutaneous Lewis lung carcinoma tumors were injected intraperitoneally with 100 μCi of ^18F-fluoro-2-deoxy-glucose under isoflurane anesthesia and subjected to a 15-minute static scan 45 minutes after tracer injection at baseline. […] Tumor/cerebellum ROI (regions of interest) were quantified, representative sagittal cuts from mice are shown with arrows showing the tumors on the animals. (* signifies statistical significance).

Chain of human recombinant PFKFB4 (Q16877 whole entry): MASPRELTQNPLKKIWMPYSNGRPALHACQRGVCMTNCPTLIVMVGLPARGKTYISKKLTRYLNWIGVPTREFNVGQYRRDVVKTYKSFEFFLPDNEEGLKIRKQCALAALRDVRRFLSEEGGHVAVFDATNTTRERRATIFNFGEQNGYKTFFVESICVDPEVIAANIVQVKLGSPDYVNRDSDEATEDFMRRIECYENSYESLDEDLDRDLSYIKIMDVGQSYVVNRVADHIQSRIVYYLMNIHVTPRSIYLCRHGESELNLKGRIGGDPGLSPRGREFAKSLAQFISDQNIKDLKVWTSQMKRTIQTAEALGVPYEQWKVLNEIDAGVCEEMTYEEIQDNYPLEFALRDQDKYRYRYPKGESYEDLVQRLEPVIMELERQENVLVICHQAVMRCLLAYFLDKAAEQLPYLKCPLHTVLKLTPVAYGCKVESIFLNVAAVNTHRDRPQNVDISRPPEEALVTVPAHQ

kinase activity of the PFKFB4 enzyme (luminescence relative to DMSO) (human recombinant PFKFB4): inhibited
Compound: 5-[(8-methoxy-2-methylquinolin-1-ium-4-yl)amino]pentyl nitrate [MPN-2]
F2,6BP production (H460 cells; H460, indicated concentrations of MPN-2): inhibited | tumor growth ([1]; intraperitoneal injection 10 mg/kg daily, eleven days): suppressed the growth

Compound: COc1cccc2c(NCCCCCO[N+](=O)[O-])ccnc12 [5MPN, 5-[(8-methoxyquinolin-4-yl)amino]pentyl nitrate]
2-[18F]-fluoro-2-deoxyglucose uptake (LLC tumors; 5MPN 120 mg/kg by gavage, once): reduction | intracellular concentration of F2,6BP (H460 cells; H460, 10 μM 5MPN, 6-72 hours): reduced | effect of overexpression of PFKFB4 on reduction in F2,6BP (H460 cells; H460 transfected with PFKFB4, 10 μM 5MPN, 24 hours): reversed | tumor growth ([1]; 5MPN 120 mg/kg oral daily, ten days): suppressed the growth | body weight ([1]; LLC-bearing mice, 120 mg/kg oral daily): without affecting body weight

kinase activity of the PFKFB4 enzyme (luminescence relative to DMSO) (human recombinant PFKFB4): inhibited
Compound: COc1cccc2c(NCCCCCNC(=O)C(F)(F)F)ccnc12 [Formula (VIII), 2,2,2-trifluoro-N-(5-((8-methoxyquinolin-4-yl)amino)pentyl)acetamide]
tumor FDG uptake (LLC tumors; 40 mg/kg PO x1, PET after 60 minutes): decrease in tumor FDG uptake compared with vehicle | established tumor growth ([1]; oral 40 mg/kg daily, 9 days): decreased established tumor growth
